Results: ChEMBL document CHEMBL3525951, “Reevaluation of the microsomal metabolism of montelukast: major contribution by CYP2C8 at clinically relevant concentrations” (Drug Metab Dispos, 2011)

What was measured:
[1] = target: T1, Cytochrome P450 3A4 (Homo sapiens, UniProt P08684); experiment: (§1) Activity of recombinant human CYP3A4 expressed in microsomes isolated from baculovirus infected insect cell assessed as enzyme-mediated (R)-2-(1-((1-(3-(2-(7-chloroquinolin-2-yl)vinyl)phenyl)-3-(4-hydroxy-2-(2-hydroxypropan-2-yl)phenyl)propylthio)methyl)cyclopropyl)acetic acid formation at 1 uM after 60 mins by LC-MS analysis; conditions: 1 h
[2] = target: Cytochrome P450 2C19 (Homo sapiens, UniProt P33261); experiment: as §1, with “CYP2C19” for “CYP3A4”; assay type: ADME; conditions: 1 h
[3] = tested on: Liver microsome; experiment: Drug metabolism in human liver microsomes assessed as 2-(1-(((1R)-1-(3-(2-(7-chloroquinolin-2-yl)vinyl)phenyl)-3-hydroxy-3-(2-(2-hydroxypropan-2-yl)phenyl)propylthio)methyl)cyclopropyl)acetic acid formation at 0.1 uM after 12 mins by LC-MS analysis in presence of 2-(1-(((S)-1-(3-(2-(7-chloroquinolin-2-yl)vinyl)phenyl)-3-(2-(2-hydroxypropan-2-yl)phenyl)propylsulfinyl)methyl)cyclopropyl)acetic acid; assay type: ADME; conditions: 0.2 h
[4] = Plasma protein binding in human; assay type: ADME, cell-free
[5] = tested on: Liver microsome; experiment: Drug metabolism in human liver microsomes assessed as 2-(1-(((S)-1-(3-(2-(7-chloroquinolin-2-yl)vinyl)phenyl)-3-(2-(2-hydroxypropan-2-yl)phenyl)propylsulfinyl)methyl)cyclopropyl)acetic acid formation at 0.02 to 0.4 uM preincubated for 3 mins followed by beta-NADPH addition by LC-MS analysis; assay type: ADME
[6] = tested on: Liver microsome; experiment: Drug metabolism in human liver microsomes assessed as 2-(1-(((1R)-1-(3-(2-(7-chloroquinolin-2-yl)vinyl)phenyl)-3-hydroxy-3-(2-(2-hydroxypropan-2-yl)phenyl)propylthio)methyl)cyclopropyl)acetic acid formation at 0.02 to 0.4 uM preincubated for 3 mins followed by beta-NADPH addition by LC-MS analysis; assay type: ADME
[7] = Oral bioavailability in human at 10 mg administered through tablet; assay type: ADME, organism-based; conditions: in vivo
[8] = target: T2, Cytochrome P450 2A6 (Homo sapiens, UniProt P11509); experiment: Activity of recombinant human CYP2A6 expressed in microsomes isolated from baculovirus infected insect cell assessed as enzyme-mediated metabolite formation at 10 uM after 60 mins by LC-MS analysis; assay type: ADME; conditions: 1 h
T2 sequence (P11509 whole entry): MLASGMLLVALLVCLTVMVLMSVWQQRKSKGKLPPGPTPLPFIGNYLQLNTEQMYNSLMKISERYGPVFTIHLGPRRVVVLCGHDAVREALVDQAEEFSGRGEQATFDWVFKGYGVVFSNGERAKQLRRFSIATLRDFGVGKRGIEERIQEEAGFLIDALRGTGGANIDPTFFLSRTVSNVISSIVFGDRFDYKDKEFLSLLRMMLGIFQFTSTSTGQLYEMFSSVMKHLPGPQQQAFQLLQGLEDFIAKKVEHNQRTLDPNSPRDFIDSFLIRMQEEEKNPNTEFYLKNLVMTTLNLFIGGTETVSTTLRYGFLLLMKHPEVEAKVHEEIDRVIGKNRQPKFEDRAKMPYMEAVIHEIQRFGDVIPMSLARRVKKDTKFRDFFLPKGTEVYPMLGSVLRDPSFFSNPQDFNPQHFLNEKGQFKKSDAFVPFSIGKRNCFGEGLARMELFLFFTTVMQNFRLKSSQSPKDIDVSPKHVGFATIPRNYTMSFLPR

[9] = Cmax in human at 10 mg, po; assay type: ADME, organism-based; design: dose 10 mg, route oral; conditions: in vivo
[10] = tested on: Liver microsome; experiment: Drug metabolism in human liver microsomes assessed as 2-(1-(((1R)-1-(3-(2-(7-chloroquinolin-2-yl)vinyl)phenyl)-3-(2-(1,2-dihydroxypropan-2-yl)phenyl)propylthio)methyl)cyclopropyl)acetic acid formation at 0.4 uM after 15 mins by LC-MS analysis in presence of CYP1A2 inhibitor furafylline, CYP2B6 inhibitor clopidogrel, CYP2D6 inhibitor quinidine and CYP2C9 inhibitor sulfaphenazole; assay type: ADME; conditions: 0.25 h
[11] = tested on: Liver microsome; experiment: Drug metabolism in human liver microsomes assessed as (R)-2-(1-((1-(3-(2-(7-chloroquinolin-2-yl)vinyl)phenyl)-3-(4-hydroxy-2-(2-hydroxypropan-2-yl)phenyl)propylthio)methyl)cyclopropyl)acetic acid formation at 0.02 to 0.4 uM preincubated for 3 mins followed by beta-NADPH addition by LC-MS analysis; assay type: ADME
[12] = tested on: Liver microsome; experiment: Drug metabolism in human liver microsomes assessed as (R)-2-(1-((1-(3-(2-(7-chloroquinolin-2-yl)vinyl)phenyl)-3-(4-hydroxy-2-(2-hydroxypropan-2-yl)phenyl)propylthio)methyl)cyclopropyl)acetic acid formation at 0.4 uM after 15 mins by LC-MS analysis in presence of CYP2C8 inhibitor gemfibrozil 1-O-beta glucuronide, CYP2A6 inhibitor 8-methoxy-psoralen and DDC; assay type: ADME; conditions: 0.25 h
[13] = tested on: Liver microsome; experiment: Drug metabolism in human liver microsomes assessed as (R)-2-(1-((1-(3-(2-(7-chloroquinolin-2-yl)vinyl)phenyl)-3-(4-hydroxy-2-(2-hydroxypropan-2-yl)phenyl)propylthio)methyl)cyclopropyl)acetic acid formation at 0.1 uM after 12 mins by LC-MS analysis in presence of 2-(1-(((S)-1-(3-(2-(7-chloroquinolin-2-yl)vinyl)phenyl)-3-(2-(2-hydroxypropan-2-yl)phenyl)propylsulfinyl)methyl)cyclopropyl)acetic acid; assay type: ADME; conditions: 0.2 h
[14] = tested on: Plasma; experiment: Fraction unbound in human plasma; assay type: ADME, cell-free
[15] = tested on: Liver microsome; experiment: Drug metabolism in human liver microsomes assessed as (R)-2-(1-((1-(3-(2-(7-chloroquinolin-2-yl)vinyl)phenyl)-3-(4-hydroxy-2-(2-hydroxypropan-2-yl)phenyl)propylthio)methyl)cyclopropyl)acetic acid formation at 0.4 uM after 15 mins by LC-MS analysis in presence of CYP1A2 inhibitor furafylline, CYP2B6 inhibitor clopidogrel, CYP2D6 inhibitor quinidine and CYP2C9 inhibitor sulfaphenazole; assay type: ADME; conditions: 0.25 h
[16] = Plasma clearance in human at 3 to 18 mg, iv; assay type: ADME, organism-based
[17] = target: T1, Cytochrome P450 3A4; experiment: Activity of recombinant human CYP3A4 expressed in microsomes isolated from baculovirus infected insect cell assessed as enzyme-mediated 2-(1-(((1R)-1-(3-(2-(7-chloroquinolin-2-yl)vinyl)phenyl)-3-hydroxy-3-(2-(2-hydroxypropan-2-yl)phenyl)propylthio)methyl)cyclopropyl)acetic acid formation at 1 uM after 60 mins by LC-MS analysis; conditions: 1 h
[18] = tested on: Liver microsome; experiment: Drug metabolism in human liver microsomes assessed as 2-(1-(((1R)-1-(3-(2-(7-chloroquinolin-2-yl)vinyl)phenyl)-3-hydroxy-3-(2-(2-hydroxypropan-2-yl)phenyl)propylthio)methyl)cyclopropyl)acetic acid formation at 0.4 uM after 15 mins by LC-MS analysis in presence of CYP1A2 inhibitor furafylline, CYP2B6 inhibitor clopidogrel, CYP2D6 inhibitor quinidine and CYP2C9 inhibitor sulfaphenazole; assay type: ADME; conditions: 0.25 h
[19] = tested on: Liver microsome; experiment: Drug metabolism in human liver microsomes at 1 to 10 uM preincubated for 3 mins followed by beta-NADPH addition by LC-MS analysis in presence of albumin; assay type: ADME
[20] = target: Cytochrome P450 2C9 (Homo sapiens, UniProt P11712); experiment: Inhibition of recombinant human CYP2C9 expressed in microsomes isolated from baculovirus infected insect cell after 10 mins
[21] = target: T2, Cytochrome P450 2A6; experiment: Activity of recombinant human CYP2A6 expressed in microsomes isolated from baculovirus infected insect cell assessed as enzyme-mediated compound depletion at 0.02 uM after 30 mins by LC-MS analysis; assay type: ADME; conditions: 0.5 h
[22] = tested on: Liver microsome; experiment: Drug metabolism in human liver microsomes at 1 to 10 uM preincubated for 3 mins followed by beta-NADPH addition by LC-MS analysis; assay type: ADME; conditions: TDE = time-dependent effect
[23] = tested on: Liver microsome; experiment: Drug metabolism in human liver microsomes assessed as 2-(2-((R)-3-((1-(carboxymethyl)cyclopropyl)methylthio)-3-(3-(2-(7-chloroquinolin-2-yl)vinyl)phenyl)propyl)phenyl)-2-hydroxypropanoic acid formation at 0.02 to 0.4 uM preincubated for 3 mins followed by beta-NADPH addition by LC-MS analysis; assay type: ADME
[24] = target: T1, Cytochrome P450 3A4; experiment: Activity of recombinant human CYP3A4 expressed in microsomes isolated from baculovirus infected insect cell assessed as enzyme-mediated compound depletion at 0.02 uM after 30 mins by LC-MS analysis; conditions: 0.5 h
[25] = tested on: Liver microsome; experiment: Drug metabolism in human liver microsomes assessed as 2-(1-(((1R)-1-(3-(2-(7-chloroquinolin-2-yl)vinyl)phenyl)-3-hydroxy-3-(2-(2-hydroxypropan-2-yl)phenyl)propylthio)methyl)cyclopropyl)acetic acid formation at 0.4 uM after 15 mins by LC-MS analysis in presence of CYP3A4 inhibitor ketoconazole and troleandomycin; assay type: ADME; conditions: 0.25 h
[26] = tested on: Plasma; experiment: Unbound plasma concentration in human at 10 mg, po; assay type: ADME, cell-free
[27] = tested on: Liver microsome; experiment: (§2) Drug metabolism in human liver microsomes assessed as 2-(1-(((1R)-1-(3-(2-(7-chloroquinolin-2-yl)vinyl)phenyl)-3-(2-(1,2-dihydroxypropan-2-yl)phenyl)propylthio)methyl)cyclopropyl)acetic acid formation at 0.05 uM after 15 mins by LC-MS analysis in presence of CYP2C8 inhibitor gemfibrozil 1-O-beta glucuronide and CYP2C9 inhibitor sulfaphenazole; assay type: ADME; conditions: 0.25 h
[28] = tested on: Liver microsome; experiment: Drug metabolism in human liver microsomes assessed as 2-(1-(((1R)-1-(3-(2-(7-chloroquinolin-2-yl)vinyl)phenyl)-3-(2-(1,2-dihydroxypropan-2-yl)phenyl)propylthio)methyl)cyclopropyl)acetic acid formation at 0.1 uM after 12 mins by LC-MS analysis in presence of 2-(1-(((S)-1-(3-(2-(7-chloroquinolin-2-yl)vinyl)phenyl)-3-(2-(2-hydroxypropan-2-yl)phenyl)propylsulfinyl)methyl)cyclopropyl)acetic acid; assay type: ADME; conditions: 0.2 h
[29] = tested on: Liver microsome; experiment: Drug metabolism in human liver microsomes assessed as 2-(1-(((1R)-1-(3-(2-(7-chloroquinolin-2-yl)vinyl)phenyl)-3-(2-(1,2-dihydroxypropan-2-yl)phenyl)propylthio)methyl)cyclopropyl)acetic acid formation at 0.02 to 0.4 uM preincubated for 3 mins followed by beta-NADPH addition by LC-MS analysis; assay type: ADME
[30] = tested on: Liver microsome; experiment: as §2, with “0.4” for “0.05”, “and trimethoprim,” for “and”, “sulfaphenazole, and CYP2E1 inhibitor DDC” for “sulfaphenazole”; assay type: ADME; conditions: 0.25 h

T1 sequence (P08684 whole entry): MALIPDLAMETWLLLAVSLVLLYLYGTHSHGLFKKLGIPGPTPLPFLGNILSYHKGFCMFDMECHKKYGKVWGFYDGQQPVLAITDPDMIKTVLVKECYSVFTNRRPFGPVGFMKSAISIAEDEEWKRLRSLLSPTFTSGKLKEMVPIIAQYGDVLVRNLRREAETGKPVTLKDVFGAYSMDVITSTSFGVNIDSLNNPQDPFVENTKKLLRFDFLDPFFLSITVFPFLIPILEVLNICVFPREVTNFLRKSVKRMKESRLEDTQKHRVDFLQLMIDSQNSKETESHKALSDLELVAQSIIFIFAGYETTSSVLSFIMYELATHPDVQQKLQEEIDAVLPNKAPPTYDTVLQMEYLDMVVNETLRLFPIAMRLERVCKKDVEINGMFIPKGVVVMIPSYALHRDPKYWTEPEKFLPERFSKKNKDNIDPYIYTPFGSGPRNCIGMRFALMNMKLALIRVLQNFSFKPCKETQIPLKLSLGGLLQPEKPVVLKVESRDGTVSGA
Cytochrome P450 2C19, sequence (P33261 whole entry): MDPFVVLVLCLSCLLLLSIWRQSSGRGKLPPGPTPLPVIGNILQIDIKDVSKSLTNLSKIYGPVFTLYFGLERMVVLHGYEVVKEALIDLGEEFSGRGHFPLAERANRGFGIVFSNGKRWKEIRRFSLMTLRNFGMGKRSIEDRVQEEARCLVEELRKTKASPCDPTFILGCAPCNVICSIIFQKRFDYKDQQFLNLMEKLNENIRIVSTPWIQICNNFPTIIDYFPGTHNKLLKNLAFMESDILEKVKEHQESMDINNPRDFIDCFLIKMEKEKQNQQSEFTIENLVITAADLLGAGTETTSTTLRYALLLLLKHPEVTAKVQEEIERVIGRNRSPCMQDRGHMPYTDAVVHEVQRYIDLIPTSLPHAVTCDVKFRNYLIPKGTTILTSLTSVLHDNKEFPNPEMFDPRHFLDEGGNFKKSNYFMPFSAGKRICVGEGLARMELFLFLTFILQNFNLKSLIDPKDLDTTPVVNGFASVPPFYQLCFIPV
Cytochrome P450 2C9, sequence (P11712 whole entry): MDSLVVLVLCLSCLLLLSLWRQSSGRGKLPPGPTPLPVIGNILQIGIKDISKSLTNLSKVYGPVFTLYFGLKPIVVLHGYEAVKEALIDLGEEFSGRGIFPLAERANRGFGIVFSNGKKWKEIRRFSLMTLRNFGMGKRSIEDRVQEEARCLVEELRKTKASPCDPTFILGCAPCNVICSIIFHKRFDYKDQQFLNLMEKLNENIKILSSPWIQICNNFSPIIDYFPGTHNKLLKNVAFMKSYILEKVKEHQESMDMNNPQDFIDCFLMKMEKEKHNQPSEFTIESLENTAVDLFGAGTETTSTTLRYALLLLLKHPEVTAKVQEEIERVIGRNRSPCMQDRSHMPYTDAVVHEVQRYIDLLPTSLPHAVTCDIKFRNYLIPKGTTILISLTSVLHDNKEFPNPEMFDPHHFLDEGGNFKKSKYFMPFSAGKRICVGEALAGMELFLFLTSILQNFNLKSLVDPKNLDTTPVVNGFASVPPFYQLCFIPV

CC(C)(O)c1ccccc1CC[C@@H](SCC1(CC(=O)[O-])CC1)c1cccc(/C=C/c2ccc3ccc(Cl)cc3n2)c1.[Na+] [MONTELUKAST SODIUM]
Drug metabolism [1]: metabolite_detected | Drug metabolism [2]: metabolite_detected | Drug metabolism [3]: metabolite_detected | fraction unbound [4]: < 0.01 | Drug metabolism [5]: metabolite_detected | Drug metabolism [6]: metabolite_detected | bioavailability [7]: 60% | Drug metabolism [8]: metabolite_detected | Cmax [9]: 500 ng/mL | Drug metabolism [10]: metabolite_detected | Drug metabolism [11]: metabolite_detected | Drug metabolism [12]: metabolite_not_detected | Drug metabolism [13]: metabolite_not_detected | Fu [14]: 0.4% | Drug metabolism [15]: metabolite_detected | clearance [16]: 0.578 mL/min/kg | Drug metabolism [17]: metabolite_detected | Drug metabolism [18]: metabolite_detected | Drug metabolism [19]: metabolite_not_detected | Ki [20]: 7.4 µM | Drug metabolism [21]: metabolite_detected | Drug metabolism [22]: tde | Drug metabolism [23]: metabolite_detected | Drug metabolism [24]: metabolite_detected | Drug metabolism [25]: metabolite_not_detected | Cp(f) [26]: 3 nM | Drug metabolism [27]: metabolite_not_detected | Drug metabolism [28]: metabolite_not_detected | Drug metabolism [29]: metabolite_detected | Drug metabolism [30]: metabolite_not_detected
